Columns and labels:
[1] = Blue-light photo-degradation of A2E; format: physicochemical; conditions: bound to SapB (2 sapB:1 A2E) versus free; 30 min, pH 5.5
Description: We screened A2E photostability to blue light, whether in its free form or complexed to SapB (2 sapB:1 A2E) (see supplementary materials for details) with and without 1% DMSO (a known facilitator of blue induced photobleaching). […] The fact that SapB might play a role in mitigating photo-bleaching and providing a source of subsequent fluorescence is an interesting possibility, particularly in light of recent studies by Yamamoto et al. showing that SapB could regulate CoQ10 movement/levels within HepG2 cells.
In order to further examine the protective effects of sapB towards A2E in terms of photooxidation, additional ultraviolet spectroscopy was performed on a Varian Cary 50B Spectrophotomer. The stock solutions were prepared as follows: SapB in 50 mM phosphate buffer, pH 5.5 and A2E in 100% methanol or 100% DMSO. The samples were exposed to blue light in five-minute increments and monitored after each exposure for a total of 30 min. The data was further analyzed with OriginLab software version 8. The final product was examined via mass spectroscopy to identify products as a result of blue light exposure. Evidence for photooxidized species are clearly indicated.

arylsulfatase A (ASA) = molecular target: T1, arylsulfatase A (ASA) (Homo sapiens, UniProt P15289); conditions: at a set time-point; cited from earlier work
T1 sequence (P15289 19-507): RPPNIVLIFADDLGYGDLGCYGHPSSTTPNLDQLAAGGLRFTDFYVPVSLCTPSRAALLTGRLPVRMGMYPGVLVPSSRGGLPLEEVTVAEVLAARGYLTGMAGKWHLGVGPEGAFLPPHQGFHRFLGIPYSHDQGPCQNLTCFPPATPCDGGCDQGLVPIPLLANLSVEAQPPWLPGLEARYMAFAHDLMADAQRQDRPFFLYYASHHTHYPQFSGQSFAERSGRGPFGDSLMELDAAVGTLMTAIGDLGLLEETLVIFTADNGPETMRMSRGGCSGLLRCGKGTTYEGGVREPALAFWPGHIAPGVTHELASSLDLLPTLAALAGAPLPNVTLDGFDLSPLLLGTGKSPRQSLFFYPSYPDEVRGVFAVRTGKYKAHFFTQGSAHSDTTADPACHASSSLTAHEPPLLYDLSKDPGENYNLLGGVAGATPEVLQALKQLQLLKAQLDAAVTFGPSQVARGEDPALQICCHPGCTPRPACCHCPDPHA

[2] = tested on: retinoic acid receptor (RAR); conditions: cited from earlier work

A2E degradation over time under blue light (decline in slopes) [1]: significantly reduced
Compound: CC(C=CC1=C(C)CCCC1(C)C)=CC=CC(C)=Cc1cc(C=CC=C(C)C=CC2=C(C)CCCC2(C)C)cc[n+]1CCO [A2E, N-retinylidene-N-retinylethanolamine]
interference with ASA specific activity (arylsulfatase A (ASA)): does not interfere | ligand activity at RAR [2]: endogenous ligand

From US10813981B2, “Saposin B binds the lipofuscin bisretinoid A2E and prevents its enzymatic and photo degradation” (Syracuse University, priority 2017, dated 2020)
